The text below walks through data of patent publication US9073892B2, “Indazolyl triazol derivatives” (Merck Serono S.A., priority 2010, dated 2015).

The assay deals with T1, IRAK1/4 human.
T1 construct: fused on or other part: His tag and TEV cleavage site at the N-terminus
The assay can be described thus: IRAK1/4 phosphorylation IC50 (enzymatic assay, table 2). The class given is biochemical. As to conditions: human IRAK1/4 phosphorylation. Summed up:
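Human IRAK-1 or IRAK-4, each carrying a His-TEV tag, was incubated with ATP and compounds in DMSO ranging from 20 µM to 1 nM in 384-well plates, and IRAK-4 reactions also contained STK1-biotin peptide. Reactions ran in 50 mM Hepes pH7.0 with MgCl2, DTT, EGTA and BSA for 2 or 3 hours, with 2% DMSO controls. Inhibition is given as IC50.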

By IC50 is commonly meant the concentration that gives 50% inhibition.

SMILES strings stand for the structures. Where a name gives a salt, the structure may show the parent alone. A value given as a limit tells only on which side of the number the result lay.

Regarding `COCCOc1ccc2c(-c3cn(-c4ccc(C(=O)N5CCOCC5)cc4)nn3)n[nH]c2c1` [Example 234], the IC50 lay within 1 to 5 µM. Molecule `O=C(c1ccc(-n2cc(-c3n[nH]c4cc(C5=CCOCC5)ccc34)nn2)cc1)N1CCOCC1` [Example 217] yielded an IC50 of 0.1 to 1 µM.

In turn, `CC(C)NC(=O)c1cccc(-n2cc(-c3n[nH]c4ccccc34)nn2)c1` [Example 68, 3-[4-(1H-indazol-3-yl)-1H-1,2,3-triazol-1-yl]-N-isopropylbenzamide] had an IC50 of 1 to 5 µM. The figure for `CN1CCC(c2ccc(-n3cc(-c4n[nH]c5ccccc45)nn3)cc2C(F)(F)F)CC1` [Example 267] is 0.1 to 1 µM; for `CCC(O)CNC(=O)c1ccc(-n2cc(-c3n[nH]c4ccccc34)nn2)cc1` (centres unmarked) [Example 119, N-(2-hydroxybutyl)-4-[4-(1H-indazol-3-yl)-1H-1,2,3-triazol-1-yl]benzamide] it is 0.1 to 1 µM; for `O=C(c1ccc(-n2cc(-c3n[nH]c4cc(CCCCO)ccc34)nn2)cc1)N1CCOCC1` [Example 216] it is 0.1 to 1 µM. The figure for `Fc1ccc2c(-c3cn(-c4ccc(CN5CCCCC56COC6)cc4)nn3)n[nH]c2c1` [Example 285] is 0.1 to 1 µM; for `c1ccc2c(-c3cn(-c4ccc(CC5CCNCC5)cc4)nn3)n[nH]c2c1` [Example 205] it is 0.1 to 1 µM. The figure for `O=C(c1ccc(-n2cc(-c3n[nH]c4ccccc34)nn2)cn1)N1CCOCC1` [Example 155] is 0.1 to 1 µM; for `C1=C(c2ccc(-n3cc(-c4n[nH]c5ccccc45)nn3)cc2)CCNC1` [Example 131, hydrochloride] it is 0.1 to 1 µM; for `O=C(c1ccc(-n2cc(-c3n[nH]c4ccc(N5CCCC(F)(F)C5)cc34)nn2)cc1)N1CCOCC1` [Example 242] it is 0.1 to 1 µM. In the case of `CN1CCC(Nc2ccc3[nH]nc(-c4cn(-c5ccc(C(=O)N6CCOCC6)cc5)nn4)c3c2)CC1` [Example 223], the IC50 is below 0.1 µM. The figure for `O=C(CN1CCOCC1)NCc1ccc(-n2cc(-c3n[nH]c4ccccc34)nn2)cc1` [Example 16, N-{4-[4-(1H-indazol-3-yl)-1H-1,2,3-triazol-1-yl]benzyl}-2-morpholin-4-ylacetamide] is 1 to 5 µM; for `CC(CO)Nc1ccc2c(-c3cn(-c4ccc(C(=O)N5CCOCC5)cc4)nn3)n[nH]c2c1` (centres unmarked) [Example 245] it is 0.1 to 1 µM. The figure for `COCCC1CN(C(=O)c2ccc(-n3cc(-c4n[nH]c5ccccc45)nn3)cc2)CCO1` (centres unmarked) [Example 168] is 0.1 to 1 µM; for `c1ccc2c(-c3cn(-c4ccc(C5CC6CCC(C5)N6C5COC5)cc4)nn3)n[nH]c2c1` (centres unmarked) [Example 249] it is 0.1 to 1 µM; for `O=C(c1ccc(-n2cc(-c3n[nH]c4ccccc34)nn2)c(F)c1)N1CCOCC1` [Example 102, 3-{1-[2-fluoro-4-(morpholin-4-ylcarbonyl)phenyl]-1H-1,2,3-triazol-4-yl}-1H-indazole] it is 1 to 5 µM.

Regarding `O=c1ccc(-c2ccncc2)nn1Cc1ccc2[nH]nc(-c3cn(-c4ccc(CN5CCOCC5)cc4)nn3)c2c1` [Example 196], the IC50 was below 0.1 µM. Turning to `O=C(Cc1ccc(-n2cc(-c3n[nH]c4ccccc34)nn2)cc1)N1CCOCC1` [Example 18, 3-{1-[4-(2-morpholin-4-yl-2-oxoethyl)phenyl]-1H-1,2,3-triazol-4-yl}-1H-indazole], the IC50 was in the range of 0.1 to 1 µM.

`CC(C)c1ccc(-n2cc(-c3n[nH]c4ccccc34)nn2)cc1` [Example 232] returned an IC50 of 1 to 5 µM. The figure for `O=C(c1ccc(-n2cc(-c3n[nH]c4cc(C(F)(F)F)ccc34)nn2)cc1)N1CCOCC1` [Example 296] is 0.1 to 1 µM; for `Fc1ccc2c(-c3cn(-c4ccc(C5CCNCC5)cc4)nn3)n[nH]c2c1` [Example 266] it is below 0.1 µM. The figure for `O=C(c1ccc(-n2cc(-c3n[nH]c4cc(O)ccc34)nn2)cc1)N1CCOCC1` [Example 235] is 0.1 to 1 µM; for `O=C(c1ccc(-n2cc(-c3n[nH]c4ccc(Cl)cc34)nn2)cc1)N1CCOCC1` [Example 193] it is 0.1 to 1 µM; for `c1ccc2c(-c3cn(-c4ccc(C5CCCNC5)cc4)nn3)n[nH]c2c1` (centres unmarked) [Example 252] it is below 0.1 µM. The figure for `CS(=O)(=O)N1CCN(C(=O)c2ccc(-n3cc(-c4n[nH]c5ccccc45)nn3)cc2)CC1` [Example 41, 3-[1-(4-{[4-(methylsulfonyl)piperazin-1-yl]carbonyl}phenyl)-1H-1,2,3-triazol-4-yl]-1H-indazole] is 0.1 to 1 µM; for `CCOCC1CCCN(C(=O)c2ccc(-n3cc(-c4n[nH]c5ccccc45)nn3)cc2)C1` (centres unmarked) [Example 164] it is 0.1 to 1 µM. The molecule `C=C(C)c1ccc2c(-c3cn(-c4ccc(C(=O)N5CCOCC5)cc4)nn3)n[nH]c2c1` [Example 201] returned an IC50 of 0.1 to 1 µM.

`CN(C)C1CCN(C(=O)c2ccc(-n3cc(-c4n[nH]c5ccc(C(F)(F)F)cc45)nn3)cc2)CC1` [Example 159] came in with an IC50 of 0.1 to 1 µM.

Take `OC(CN1[C@@H]2CC[C@H]1C[C@@H](c1ccc(-n3cc(-c4n[nH]c5ccccc45)nn3)cc1)C2)C(F)(F)F` (some centres unmarked) [Example 280]: the half-inhibitory concentration (IC50) was in the range of 0.1 to 1 µM.

In turn, `C#Cc1ccc2c(-c3cn(-c4ccc(C(=O)N5CCOCC5)cc4)nn3)n[nH]c2c1` [Example 221] registered an IC50 of 0.1 to 1 µM. The figure for `Cc1ccc2c(-c3cn(-c4ccc(CN5CC6CCC(C5)O6)cc4)nn3)n[nH]c2c1` [Example 293] is 0.1 to 1 µM; for `O=C(NCc1ccc(-n2cc(-c3n[nH]c4ccccc34)nn2)cc1)C1CCOCC1` [Example 17, N-{4-[4-(1H-indazol-3-yl)-1H-1,2,3-triazol-1-yl]benzyl}tetrahydro-2H-pyran-4-carboxamide] it is 1 to 5 µM. Next, `FCCN1CCC(c2ccc(-n3cc(-c4n[nH]c5ccccc45)nn3)cc2)CC1` [Example 133, 3-(1-{4-[1-(2-fluoroethyl)piperidin-4-yl]phenyl}-1H-1,2,3-triazol-4-yl)-1H-indazole]: 0.1 to 1 µM; `Cc1ccc2c(-c3cn(-c4ccc([C@@H]5C[C@H]6CCC[C@@H](C5)N6C)cc4)nn3)n[nH]c2c1` [Example 274]: below 0.1 µM. The figure for `O=C(NCc1cccc(F)c1)c1ccc(-n2cc(-c3n[nH]c4ccccc34)nn2)cc1` [Example 62, N-(3-fluorobenzyl)-4-[4-(1H-indazol-3-yl)-1H-1,2,3-triazol-1-yl]benzamide] is 1 to 5 µM. Molecule `CCC1CCCCN1CCCNC(=O)c1ccc(-n2cc(-c3n[nH]c4ccccc34)nn2)cc1` (centres unmarked) [Example 59, N-[3-(2-ethylpiperidin-1-yl)propyl]-4-[4-(1H-indazol-3-yl)-1H-1,2,3-triazol-1-yl]benzamide] came in with an IC50 of 0.1 to 1 µM. Next, `COc1cc2[nH]nc(-c3cn(-c4ccc(C(=O)N5CCOCC5)cc4)nn3)c2cc1Br` [Example 202]: 1 to 5 µM. Take `O=C(c1ccc(-n2cc(-c3n[nH]c4cc(CCCO)ccc34)nn2)cc1)N1CCOCC1` [Example 147, 3-(3-{1-[4-(morpholin-ylcarbonyl)phenyl]-1H-1,2,3-triazol-4-yl}-1H-indazol-6-yl)propan-1-ol]: the IC50 lay within 0.1 to 1 µM.

Regarding `Cc1ccc2c(-c3cn(-c4ccc(C(=O)N5CCOCC5)cc4)nn3)n[nH]c2c1` [Example 184], the IC50 is below 0.1 µM. In the case of `O=C(c1ccc(-n2cc(-c3n[nH]c4cc(Br)ccc34)nn2)cc1)N1CCOCC1` [Example 208], the IC50 was in the range of 0.1 to 1 µM. The figure for `CN1C2CCC1CC(n1cc(-n3cc(-c4n[nH]c5ccccc45)nn3)cn1)C2` (centres unmarked) [Example 140, 3-{1-[1-(8-methyl-8-azabicyclo[3.2.1]oct-3-yl)-1H-pyrazol-4-yl]-1H-1,2,3-triazol-4-yl}-1H-indazole] is below 0.1 µM; for `CN1CCCC(Nc2ccc3[nH]nc(-c4cn(-c5ccc(C(=O)N6CCOCC6)cc5)nn4)c3c2)C1` (centres unmarked) [Example 148, N-(1-methylpiperidin-3-yl)-3-{1-[4-(morpholin-4-ylcarbonyl)phenyl]-1H-1,2,3-triazol-4-yl}-1H-indazol-5-amine] it is below 0.1 µM; for `c1ccc2c(-c3cn(-c4ccc(-c5cnn(C6CCNCC6)c5)cc4)nn3)n[nH]c2c1` [Example 294] it is 0.1 to 1 µM. The figure for `Cc1cc(-c2ccc(-n3cc(-c4n[nH]c5ccccc45)nn3)cc2)ccn1` [Example 260] is 0.1 to 1 µM; for `Fc1ccc2c(-c3cn(-c4ccc(CN5CC6CCC(C5)O6)cc4)nn3)n[nH]c2c1` [Example 282] it is 1 to 5 µM; for `O=C(c1ccc(-n2cc(-c3n[nH]c4cc(-c5ccc(CO)cc5)ccc34)nn2)cc1)N1CCOCC1` [Example 207] it is 1 to 5 µM.

In turn, `Cc1ccc2c(-c3cn(-c4ccc(C5CCNCC5)cc4)nn3)n[nH]c2c1` [Example 265] came in with an IC50 below 0.1 µM. Molecule `CC1(C)CNCCC1c1ccc(-n2cc(-c3n[nH]c4ccccc34)nn2)cc1` (centres unmarked) [Example 277] had an IC50 below 0.1 µM. `COc1ccc2c(-c3cn(-c4ccc(C(=O)N5CCOCC5)cc4)nn3)n[nH]c2c1` [Example 195] registered an IC50 of 0.1 to 1 µM. The figure for `CN1CCN(C(=O)CCc2ccc(-n3cc(-c4n[nH]c5ccccc45)nn3)cc2)CC1` [Example 24, 3-(1-{4-[3-(4-methylpiperazin-1-yl)-3-oxopropyl]phenyl}-1H-1,2,3-triazol-4-yl)-1H-indazole] is 1 to 5 µM; for `O=c1ccc(-c2ccc(O)cc2)nn1Cc1ccc2[nH]nc(-c3cn(-c4ccc(CN5CCOCC5)cc4)nn3)c2c1` [Example 199] it is 0.1 to 1 µM. The figure for `O=C(c1ccc(-n2cc(-c3n[nH]c4ccc(CN5CC(O)C5)cc34)nn2)cc1)N1CCOCC1` [Example 292] is 0.1 to 1 µM. Next, `O=C(c1ccc(-n2cc(-c3n[nH]c4ccc(Br)cc34)nn2)cc1)N1CCOCC1` [Example 122, 5-bromo-3-{1-[4-(morpholin-4-ylcarbonyl)phenyl]-1H-1,2,3-triazol-4-yl}-1H-indazole]: 0.1 to 1 µM; `c1ccc2c(-c3cn(-c4ccc(C5CCCNCC5)cc4)nn3)n[nH]c2c1` (centres unmarked) [Example 269]: below 0.1 µM. With `CC1(C)CNCCC1c1ccc(-n2cc(-c3n[nH]c4cc(F)ccc34)nn2)cc1` (centres unmarked) [Example 275], the concentration for half-maximal inhibition (IC50) was below 0.1 µM.
